Calls of active or inactive are those of the source. The rule behind the calls is not given here.

Data on 95 compounds can be found in PubChem BioAssay AID449750 (Broad Institute, 2010).

This experiment can be described thus: non-covalent RecA intein splicing inhibitors, dose response, biochemical, cell-free, fluorescence, secondary screen (AID 449750).

Regarding `Cc1[nH]n(-c2ccccc2)c(=O)c1C(c1cccc([N+](=O)[O-])c1)c1c(C)[nH]n(-c2ccccc2)c1=O`, the AC50 is 8.53 µM.

For `CC1(C)N=C(SCC(=O)Nc2ccc(Cl)cc2)C(c2ccc(Cl)cc2)=N1`, the AC50 was 29.8 µM.

As for `N#CCCN(C(=O)CCl)c1cccc(Cl)c1`, the AC50 was 38.9 µM.

As to `C=CCc1cccc(C=Nc2c[nH]c(=O)[nH]c2=O)c1O`, the AC50 was > 38 µM (inactive).

With `O=C1C(=O)c2ccccc2-c2ccccc21`, the AC50 was 16.8 µM.

Take `CCc1cccc(NC(=O)CSCc2cc(=O)[nH][nH]2)c1`: the AC50 was 27.7 µM.

Consider `O=c1c(Cl)nc2cc(Cl)ccc2n1CCNc1ncc(C(F)(F)F)cc1Cl`, for which the AC50 was > 38 µM (inactive).

In the case of `CC1(C)CC2(C)OC(=N)C1(C#N)C2(C#N)C#N` (stereo not given), the AC50 is > 38 µM (inactive).

For the compound `Clc1ccc(-c2nnc(Sc3nc4ccccc4o3)c3ccccc23)cc1`, the AC50 was 7.15 µM.

On to `COc1cc(NC(C)CCCN)c2ncccc2c1` (stereo not given), for which the AC50 was 12.3 µM.

For `COC(=O)C(O)(c1c(C)[nH]n(-c2ccccc2)c1=O)C(F)(F)F` (stereo not given), the AC50 was 5.49 µM.

Consider `Cc1[nH]nc2c1C1(CCN(C(=O)OCc3ccccc3)CC1)C(C#N)=C(N)O2`, for which the AC50 is > 38 µM (inactive).

Turning to `O=C1/C(=C/c2ccc3c(c2)OCO3)CCC/C1=C\c1ccc2c(c1)OCO2`, the AC50 is > 38 µM (inactive).

`Cc1[nH][nH]c(=O)c1C(c1ccc(F)cc1)c1c(C)[nH][nH]c1=O`: the concentration at half-maximal activity (AC50) is 11.9 µM.

For the compound `Oc1ccc(Nc2nc(-c3ccc4ccccc4c3)cs2)cc1`, the AC50 is > 38 µM (inactive).

On to `CC(C)(C)c1csc(NC(=O)c2c(F)c(F)c(F)c(F)c2F)n1`, for which the AC50 is 16.3 µM.

With `O=C(Nc1ccc(Cl)cc1)/C(=C/c1cccc(O)c1)c1nc2ccccc2s1`, the AC50 is 3.1 µM.

As for `CCOC(=O)c1c(NC(=O)CCl)sc(C(=O)N(CC)CC)c1C`, the AC50 was 4.22 µM.

For `O=C1CC(CSc2ccc(Cl)cc2)=NN1`, the AC50 was 25 µM.

With `O=C(Nc1ccccc1)C1=C(c2ccccc2)S(=O)(=O)CCS1(=O)=O`, the AC50 is > 38 µM (inactive).

With `COC(CN(C(=O)CCl)C(C(=O)NC1CCCCC1)c1ccc(C)cc1)OC` (stereo not given), the AC50 was 17.9 µM.

With `Cc1c(C#N)c(NC(=O)CCl)n(Cc2cccs2)c1C`, the AC50 is 8.86 µM.

For the compound `N#CC1(NC(=O)COC(=O)c2cc(O)c3ccccc3c2O)CCCCC1`, the AC50 was 10.2 µM.

On to `CC(NC(=O)COC(=O)c1cc(NS(=O)(=O)c2ccc(Cl)c([N+](=O)[O-])c2)ccc1O)C1CC2CCC1C2` (stereo not given), for which the AC50 is 1.67 µM.

Regarding `N#Cc1ncc(Cc2ccccc2)nc1C#N`, the AC50 was > 38 µM (inactive).

Regarding `CCCCCCCCCCn1c2c(c(=N)c3c1CCC3)CCC2`, the AC50 is > 38 µM (inactive).

Regarding `CCCCCCCN(C(=O)CCl)c1ccccc1C`, the AC50 was 1.89 µM.

With `COc1ccc(Nc2ccc(OC)cc2)cc1`, the AC50 is > 38 µM (inactive).

On to `Cc1cccc(OCC(=O)Oc2ccc(Cl)cc2)c1`, for which the AC50 is > 12 µM (inactive).

Turning to `CCc1nnc(NC(=O)c2nc(S(=O)(=O)Cc3ccc(C)cc3)ncc2Cl)s1`, the AC50 is > 38 µM (inactive).

With `O=C(COC(=O)C1CC(=O)N(Cc2ccco2)C1)c1ccc(OC(=O)c2ccco2)cc1` (stereo not given), the AC50 is > 38 µM (inactive).

In the case of `O=C(CCl)N(C/C=C/c1ccccc1)c1ccc2c(c1)OCCO2`, the AC50 is 1.12 µM.

Take `CC(=O)c1cccc(NC(=O)CSc2ncc(C(=O)Nc3ccccc3)c(=O)n2C)c1`: the AC50 is > 12 µM (inactive).

As for `COc1ccc(/C=N/NC(=O)c2nn(-c3ccccc3)c(=O)c3c(N)scc23)cc1`, the AC50 was > 38 µM (inactive).

Take `O=S(=O)(Nc1ccc(O)c2ccccc12)c1ccc(OC(F)(F)F)cc1`: the AC50 was 0.779 µM.

With `CC(=O)N(C)Cc1ccc(C(=O)CCl)cc1`, the AC50 is > 38 µM (inactive).

With `COc1ccc(C(C(=O)NC2CCCCC2)N(C(=O)CCl)c2cccc(Cl)c2)cc1` (stereo not given), the AC50 was 0.577 µM.

For `COc1cccc(-c2[nH]nc3c2C(c2ccsc2)C(C#N)=C(N)O3)c1` (stereo not given), the AC50 is 5.11 µM.

Take `Cc1ccccc1CS(=O)(=O)c1snnc1C`: the AC50 is > 38 µM (inactive).

With `Cc1ccc(C2=NN(C(=O)CCl)C(c3ccco3)C2)o1` (stereo not given), the AC50 was 6.65 µM.

As for `CS(=O)(=O)N1CCC(Oc2ccccc2C(=O)N2CCCCC2CO)CC1` (stereo not given), the AC50 is > 38 µM (inactive).

For `Cc1nn(C(=O)c2cccnc2)c(C)c1Sc1ccc(Br)cc1`, the AC50 was 24.5 µM.

As to `Cc1ccc(C(=O)N/N=C/c2ccc(-c3ccccc3[N+](=O)[O-])o2)cn1`, the AC50 is 9.17 µM.

As for `COc1ccc(/C=C2/C(=O)N(c3ccccc3)N=C2C)cc1`, the AC50 is 5.27 µM.

Consider `Cc1ccc(-n2nc(C)c3c2OC(N)=C(C#N)C3c2ccc(C)o2)cc1` (stereo not given), for which the AC50 is 8.87 µM.

As to `COc1ccc(CN2CCNC(=O)C2CC(=O)N(C)Cc2ccncn2)c(OC)c1` (stereo not given), the AC50 is > 38 µM (inactive).

On to `COc1ccccc1Nc1cc2cc(Br)ccc2c(=O)[nH]1`, for which the AC50 is 6.07 µM.

As for `NS(=O)(=O)c1ccc(N=Cc2c(O)c3ccccc3oc2=O)cc1`, the AC50 was > 38 µM (inactive).

For the compound `CC(=O)N1CC2(c3ccccc3)CN(C(C)=O)CC(c3ccccc3)(C1)C2=O`, the AC50 is > 38 µM (inactive).

For the compound `O=C(NN=c1c(=O)c2ccccc2c1=O)c1ccccc1`, the AC50 was 8.96 µM.

Take `COc1ccc(Cc2nccc3cc(OC)c(OC)cc23)cc1OC`: the AC50 was > 38 µM (inactive).

As to `Cc1cccc(CN2CCN(C(=O)CCl)CC2)c1`, the AC50 is 34.1 µM.

For `CCc1ccc(Nc2n[n+](-c3ccccc3)c(-c3c(Cl)cccc3Cl)s2)cc1`, the AC50 is 8.26 µM.

On to `CCOc1ccc(NC(=O)C(c2ccccn2)N(C(=O)CCl)c2ccc(F)cc2)cc1` (stereo not given), for which the AC50 is 36.2 µM.

Regarding `CN(C(=O)C(Cl)Cl)c1ccc(OC(=O)c2ccco2)cc1`, the AC50 is > 38 µM (inactive).

As to `O=C(CCl)N(Cc1cc(=O)[nH]c2ccccc12)c1ccccc1`, the AC50 was 8.46 µM.

Take `N#CCn1c(CCl)nc2ccccc2c1=O`: the AC50 was > 38 µM (inactive).

Take `COC(=O)c1nc(NC(=O)c2ccc(C(C)(C)C)cc2)n[nH]1`: the AC50 is > 38 µM (inactive).

Consider `CCOC(=O)C1CCC2(CC1)C(C#N)=C(N)Oc1n[nH]c(C)c12` (stereo not given), for which the AC50 is > 38 µM (inactive).

Consider `CC1=NN(c2ccccc2)C(=O)/C1=C/c1cccc(C)c1`, for which the AC50 was 4.14 µM.

For `CC(=O)N(C1=C(N)C(=O)c2ccccc2C1=O)c1ccccc1`, the AC50 is 10.6 µM.

For `CC(C)c1nnc(NC(=O)c2nc(S(=O)(=O)Cc3ccccc3)ncc2Cl)s1`, the AC50 was 15 µM.

Consider `COC(=O)c1cc([N+](=O)[O-])c(-n2ccnc2)c([N+](=O)[O-])c1`, for which the AC50 is > 38 µM (inactive).

With `Cc1ccc(NC(=O)C(CC(C)C)NC(N)=O)cc1` (stereo not given), the AC50 was > 38 µM (inactive).

For the compound `COc1ccc(OC)c(Nc2cc3ccccc3c(=O)[nH]2)c1`, the concentration at half-maximal activity (AC50) is 1.92 µM.

For the compound `CCOc1cc(CNc2ccc3cn[nH]c3c2)ccc1OC`, the AC50 was 12.7 µM.

Regarding `S=C1NCCC12C(=S)Nc1ccccc12` (stereo not given), the AC50 is > 38 µM (inactive).

For the compound `CCOc1cc(C(c2c(C)[nH][nH]c2=O)c2c(C)[nH][nH]c2=O)ccc1OCc1ccc([N+](=O)[O-])cc1`, the AC50 is 6.09 µM.

For the compound `O=C(NCc1cccnc1)/C(=C/c1ccc(-c2ccc(Cl)cc2)o1)S(=O)(=O)c1ccccc1`, the AC50 is 32.4 µM.

For the compound `CC(C)=CCC/C(C)=C/Cc1c(O)ccc(C(=O)/C=C/c2ccc(O)cc2)c1O`, the AC50 is 16.4 µM.

On to `ClCc1nnc(-c2cc3c(s2)CCCC3)o1`, for which the AC50 was > 38 µM (inactive).

On to `O=[N+]([O-])c1cc(-c2ccc(C(=S)N3CCOCC3)o2)ccc1Cl`, for which the AC50 is 18.4 µM.

As for `Clc1ccc2nnnc(-c3ccccc3)c2c1`, the AC50 is 9.57 µM.

Take `O=C(CCCN1C(=O)/C(=C/c2ccccc2)SC1=S)Nc1ccc(C(=O)O)c(O)c1`: the AC50 was 33.8 µM.

Consider `O=C1C(Cl)=C(NCCN2CCCCC2)C(=O)c2ccccc21`, for which the AC50 is 13.3 µM.

Take `COc1cc(NC2CCCCC2O)c2nc(-c3ccc(Cl)cc3)ccc2c1` (stereo not given): the AC50 is 9.05 µM.

`Cn1c(-c2ccccc2)c(C(=O)CCl)c2ccccc21`: the AC50 is 22.9 µM.

`CCOC(=O)c1cnc(N)nc1C(F)(F)F`: the AC50 was > 38 µM (inactive).

Regarding `O=C(CCl)Nc1cn(-c2ccccc2)nc1-c1ccc(F)cc1`, the AC50 was 2.82 µM.

For the compound `Cc1ccc(NC(=O)c2cnc(SCC(=O)NCC3CCCO3)n(C)c2=O)cc1` (stereo not given), the AC50 was > 38 µM (inactive).

As for `CN(C)c1ncc(C2=C(Cl)C(=O)C(N3CCCC3)=C(Cl)C2=O)s1`, the AC50 was 14 µM.

As to `CCO/C=C1/C(=O)N(C)C(=O)c2cc(OC)ccc21`, the AC50 was > 38 µM (inactive).

With `O=C(O)CC1S/C(=N/N=C/c2ccc(-c3ccc(Cl)cc3[N+](=O)[O-])o2)NC1=O` (stereo not given), the AC50 is 4.67 µM.

`CCOc1ccc(N2C(=O)/C(=C\c3ccc(OC)c(O)c3)S(=O)(=O)C2c2cccc([N+](=O)[O-])c2)cc1` (stereo not given): the AC50 is > 38 µM (inactive).

Turning to `O=C(CCl)N1CCCC1c1ccc2c(c1)OCCO2` (stereo not given), the AC50 is 4.86 µM.

For the compound `Cc1[nH]nc2c1C(c1cccc(OC(=O)N3CCOCC3)c1)C(C#N)=C(N)O2` (stereo not given), the AC50 was > 38 µM (inactive).

Regarding `COc1ccc(C2=NN(c3nc(C)cc(C)n3)C(=O)C2)cc1`, the AC50 is 5.75 µM.

Consider `O=C(c1ccc(Cl)cc1)n1cnc2ccccc21`, for which the AC50 was > 38 µM (inactive).

Consider `CC(C)(c1ccccc1)c1ccc(OCC2CO2)cc1` (stereo not given), for which the AC50 was 8.68 µM.

Take `COc1ccc(NC(=O)/C(Cl)=C(/Cl)S(=O)Cc2ccccc2)cn1` (stereo not given): the AC50 was > 38 µM (inactive).

For the compound `CCCCCCN(C(=O)CCl)c1ccccc1`, the AC50 is 3.5 µM.

For `CC1=NN(c2ccccc2)C(=O)/C1=C/c1cccs1`, the AC50 is 9.94 µM.

With `CCc1nnc(NS(=O)(=O)c2ccc(NC(=S)NC(=O)/C=C/c3ccc(C(C)C)cc3)cc2)s1`, the AC50 was 5.98 µM.

As to `COC(=O)[C@@H]1[C@@H](C(=O)OC)C2(c3ccccc3-c3ccccc32)N(c2ccc(Cl)cc2)N1C#N`, the AC50 was 34.3 µM.

For `Cc1[nH][nH]c(=O)c1C(c1ccc(-c2ccc(Cl)c(Cl)c2)o1)c1c(C)[nH][nH]c1=O`, the AC50 was 3.11 µM.
